These results are taken from patent US20190059381A1, “METHOD FOR CONTROLLING PESTS OF SOYBEAN, CORN, AND COTTON PLANTS” (BASF SE, priority 2016, published 2019).

Where two headings read alike, the source gives them in different places.

The subject of the assay is Brown Stink Bug (Euschistus heros). Briefly: Action on Brown Stink Bug (Euschistus heros) on sprayed soybean seedlings. The class given is in vivo. Conditions: for mortality at 1 ppm: 1 ppm a.i.; for mortality at 10 ppm: 10 ppm a.i. On the procedure: Action on Brown Stink Bug (Euschistus heros)
The active compound is dissolved at the desired concentration in a mixture of 1:1 (vol:vol) distilled water: acetone.
Soybean seedlings of Intacta® and BMX-Potencia with one pair of true leaves were sprayed with 2 ml solution using an airbrush. After dry, the plants in small pots were placed inside a transparent plastic cage and infested with 10 adults adult stage individuals. Treated cups were kept at about 25° C. Percent mortality was recorded after 3 and 7 days after application.

The mark [1] stands for this setting: 72 h, BMX-POTENCIA soybean seedlings, 3 days after application, adults, read-out: mortality 3 DAA.
[2] abbreviates: 72 h, INTACTA soybean seedlings, 3 days after application, adults, read-out: mortality 3 DAA.
Setting [3] is: 168 h, BMX-POTENCIA soybean seedlings, 7 days after application, adults, read-out: mortality 7 DAA.
Where [4] appears, read: 168 h, BMX-POTENCIA soybean seedlings, 7 days after application, corrected according to Abbott, read-out: mortality (Abbott %) 7 DAA.
Setting [5] is: 168 h, INTACTA soybean seedlings, 7 days after application, adults, read-out: mortality 7 DAA.
Setting [6] is: 168 h, INTACTA soybean seedlings, 7 days after application, corrected according to Abbott, read-out: mortality (Abbott %) 7 DAA.

In the case of `CCN1OC[C@@H](NC(=O)c2ccc(C3=NOC(c4cc(Cl)cc(Cl)c4)(C(F)(F)F)C3)cc2C)C1=O` (stereo partly drawn) [Compound I.1], the mortality (as a rule, the share of the test organisms that died) at 1 ppm was 7.5% under setting [1]; 12.5% under setting [2]; 50% under setting [3]; 42.9% under setting [4]; 57.5% under setting [5]; 50% under setting [6]. For the same compound, the mortality at 10 ppm turned out to be 17.5% under setting [1]; 17.5% under setting [2]; 82.5% under setting [3]; 80% under setting [4]; 85% under setting [5]; 82.4% under setting [6].
